The values that follow come from patent publication US6749850B1, “Methods, compositions and kits for promoting recovery from damage to the central nervous system” (The General Hospital Corporation, priority 1999, dated 2004).

Experiment [1] has as its system rat stroke model (focal cerebral infarction, middle cerebral artery electrocoagulation). The experiment in a line: Example 1: sensorimotor behavioural tests after intracisternal treatment in rat stroke model. Type of experiment: in vivo. As to the method: In this example, fetal mouse neural stem cells (NSC) with or without basic fibroblast growth factor (bFGF) were administered intracisternally in a model of stroke recovery in rats. Male Sprague-Dawley rats, 300-350 grams, were handled for one week before surgery. They received an antibiotic, cefazolin sodium (40 mg/kg, i.p.), one day before stroke surgery. On the day of stroke surgery, animals were anesthetized by 2% halothane in a […]/oxygen mixture (2:1). Focal cerebral infarction, (stroke) was performed by proximal electrocoagulation of the middle cerebral artery, as described previously (Kawamata et al. (1999) Exp. Neurol. 158, 89-96; Tamura et al. (1981) J. Cereb. Blood Flow Metab. 1, 53-60). […] This technique produces a robust and reproducible infarct, or region of cell death, in the dorsolateral cerebral cortex and underlying striatum. Animals received another injection of cefazolin sodium (40 mg/kg, i.p.) immediately after surgery. They were then allowed to awaken from anesthesia.
Twenty-four hours after stroke surgery, animals received an intracisternal injection of either: (1) vehicle, (2) NSC (10^6 cells), (3) bFGF (0.5 μg), or (4) NSC+bFGF. Intracisternal injection in 50 μl total volume was done through percutaneous injection into the cisterna magna under halothane anesthesia. This same procedure was repeated two days later so that animals received treatment on days 1 and 3 following stroke. Cyclosporin, an immunosuppressant, was administered at 10 mg/kg, i.p. for the duration of the experiment.
The cerebral infarcts produced by the procedure cause sensorimotor dysfunction of the contralateral hindlimb and forelimb. For the next month following stroke, a number of neurological tests were done to assess sensorimotor function of the contralateral limbs. These tests include both the forelimb and hindlimb placing tests which test the animal's ability to place the limb on a tabletop in response to visual, tactile, proprioceptive, and whisker stimulation. […]

Experiment [2] shares this test system. Briefly: Example 2: behavioural tests after intracerebral NSC and intracisternal bFGF in rat stroke model. The experiment is classed as in vivo. The settings on record: single administration one day after stroke. As to the method: In a second experiment, NSC were injected directly into the brain into tissue surrounding focal strokes. bFGF was injected intracisternally, as before. In this experiment only one administration of NSC or bFGF was performed at one day after stroke.
In this experiment, animals were handled for one week before surgery. In addition, they were trained on an additional test, the paw reaching test (see below) for 10 days before surgery. As before, they received cefazolin sodium (40 mg/kg, i.p.) before surgery. On the day of surgery, electrocoagulation of the proximal middle cerebral artery was done, as described previously (Kawamata et al. (1996) J. Cereb. Blood Flow Metab. 16, 542-547; Kawamata et al. (1997) Proc. Nat. Acad Sci. 94, 8179-8184; Kawamata et al. (1999) Exp. Neurol. 158, 89-96). They received another injection of cefazolin sodium, 40 mg/kg, i.p. after surgery.
At one day after stroke, animals received either: (1) vehicle injection into periinfarct tissue, and vehicle injection into the cisterna magna, (2) NSC (10^6 cells) into periinfarct tissue and vehicle into the cisterna magna, (3) vehicle into periinfarct tissue and bFGF (0.5 μg) into the cisterna magna or (4) the combination NSC (10^6 cells) into periinfarct tissue and bFGF (0.5 μg) into the cisterna magna.
These injections were done with a volume of 25 μl each under 2% halothane anesthesia. […]

Experiment [3] deals with animal models of stroke. The settings on record: administered starting a day or more after stroke; cited from earlier work.
The subject of experiment [4] is rat stroke model. The following applies: BDNF administered conjointly with bone marrow cells; cited from earlier work.

For “bFGF: basic fibroblast growth factor, a protein that supports survival and axonal outgrowth from neurons”, in experiment [1] (intracisternal on days 1 and 3 after stroke, NSC 10^6 cells, bFGF 0.5 μg, compared to placebo, FIGS. 1A-1B), the “recovery on limb placing tests (forelimb and hindlimb)” value was “significantly enhanced recovery compared to placebo”. The body swing test result in experiment [1] (intracisternal on days 1 and 3 after stroke, compared to placebo, FIG. 1C) is given as “No differences”. In experiment [1] (intracisternal starting one day after stroke), the “sensorimotor recovery of the contralateral limbs (summary)” value was “significantly enhance sensorimotor recovery”. Further, in experiment [2], the “behavioral outcome overall (summary of tests)” value is on record as “improved behavioral outcome on some tests”. Further, the “recovery on forelimb and hindlimb placing tests” value in experiment [2] (NSC 10^6 cells periinfarct, bFGF 0.5 μg cisterna magna, compared to placebo, FIGS. 2A-2B) was “superiority in recovery”. Also, the “recovery on tests of sensorimotor function of the impaired limbs” value in experiment [3] was “recover more quickly and to a greater extent”.

B1: BDNF: polypeptide growth factor, administered conjointly with bone marrow cells in a cited study (Chen et al. 2000) (protein, UniProt P23560 19-247, looked up)
Neurotrophic factor BDNF …: APMKEANIRGQGGLAYPGVRTHGTLESVNGPKAGSRGLTSLADTFEHVIEELLDEDQKVRPNEENNKDADLYTSRVMLSSQVPLEPPLLFLLEEYKNYLDAANMSMRVRRHSDPARRGELSVCDSISEWVTAADKKTAVDMSGGTVTVLEKVPVSKGQLKQYFYETKCNPMGYTKEGCRGIDKRHWNSQCRTTQSYVRALTMDSKKRIGWRFIRIDTSCVCTLTIKRGR
For B1, in experiment [4], the “recovery in a rat stroke model” value is listed as “improve recovery”.
